Consider two compounds from patent publication US11957127B1, “1,3-bis(naphthalen-2-yloxy)propan-2-one as an eco-friendly insecticidal agent against Spodoptera littoralis (boisd.)” (priority 2023, dated 2024).

In brackets after ≈: the same amount, converted by molar mass. Where two headings read alike, the source gives them in different places.

The data set relates to Spodoptera littoralis. Kind of data set: Insecticidal bioassay screening (castor leaf dip, larval mortality). It counts as in vivo. The settings on record: for Toxic ratio: 72 h, fenoxycarb's LC50 / compound's LC50 × 100. As to the method:
Five concentrations (200, 100, 50, 25, 12.5 ppm) were designed for this synthetic compound and the reference fenoxycarb compound as the dynamic ingredients based on ppm via diluting the commercial formulation.
In this experiment, castor leaves are immersed in each of the previously prepared concentrations of the components for 10 seconds and then left to dry for 60 minutes. Larvae of the second and fourth instars of each checked strain are prepared with treated leaves in gauze-covered glass containers for 72 hrs. An untreated control is made in which leaves are dipped in triton x-100 and distilled water only. Then the preserved leaves were removed & fresh, untreated leaves were provided for 72 hours. Three replicates (10 larvae each) were checked for each concentration. Daily inspection was carried out for all treatments and mortality percentages were recorded 3 days (72 hours) after treatment. The average mortality percentage was corrected employing Abbott's formula. The corrected mortality rate for each of the previously synthesized compounds is statistically calculated according to Finney (1970). Through this rate, the corresponding concentration test lines (LDP lines) are assessed. Fifty and ninety percent mortality are determined, and the regression values for the checked products were previously evaluated.

Setting [1] is: 2nd instar larvae of S. littoralis, after 72 h of treatment.
The mark [2] stands for this setting: 4th instar larvae of S. littoralis, after 72 h of treatment.

As to `O=C(COc1ccc2ccccc2c1)COc1ccc2ccccc2c1` [Compound 4, 1,3-bis(naphthalen-2-yloxy)propan-2-one], the LC50 (in general, the concentration that kills 50% of the test population) reads like this: under setting [1], 38.69 ppm; (2nd instar larvae of S. littoralis, after 72 h of treatment, listed as 1,3-bis(naphthalen-2-yloxy)propan-2-one) “about 38.69 ppm”; under setting [2], 86.921 ppm; (4th instar larvae of S. littoralis, after 72 h of treatment, listed as 1,3-bis(naphthalen-2-yloxy)propan-2-one) “about 86.921 ppm”; (foliar, against Spodoptera littoralis under laboratory conditions (instar not given), read-out: LC50) 38.7 µg/mL (≈ 113 µM). The Toxic ratio reads like this: (2nd instar larvae) 7.0; (4th instar larvae) 49.7. For the same compound, the “activity against Spodoptera littoralis (in words)” value (compared with reference insecticide fenoxycarb) is reported as “active”.
In the case of `CCOC(=O)NCCOc1ccc(Oc2ccccc2)cc1` [Fenoxycarb, reference compound], the LC50 is, setting by setting: under setting [1], 2.73 ppm; under setting [2], 43.231 ppm; (Spodoptera littoralis, foliar) 2.73 µg/mL (≈ 9.06 µM). Further, the Toxic ratio (2nd instar larvae) was 100 and the Toxic ratio (4th instar larvae) is given as 1.
